Data from patent US20180289689A1, “USE OF CCR5 ANTAGONISTS ALONE OR IN COMBINATION THERAPY FOR THE TREATMENT OF CANCER” (RUPRECHT-KARLS-UNIVERSITÄT HEIDELBERG, priority 2014, published 2018).

Key:
[1] = tested on: colorectal cancer liver metastases; test: Tumor explant model from freshly resected colorectal cancer liver metastases; assay type: cell-based, human; settings: FIG. 1
Text: Tumor explant models. Tumor explant models were generated from freshly resected colorectal cancer liver metastases. Explanted tissue specimens were cut into three equal parts, placed in unconditioned medium and either treated with DMSO or Maraviroc (in DMSO) or without any addition. The explants were then harvested and subjected to histological analyses (see FIG. 1) and multiplex protein analysis (see FIG. 3).

[2] = tested on: colorectal cancer patients with hepatic metastases; test: MARACON-001 phase I trial, Maraviroc monotherapy; assay type: in vivo, human; settings: for Objective response (RECIST)/ other responses: Patient 4, colorectal cancer (metastatic: lung and liver), monotherapy
Text: Clinical trial. A trial in colorectal cancer patients with hepatic metastases was initiated. […] In the trial, patients receive Maraviroc daily for two months. Safety and feasibility are the primary endpoints of this ongoing trial. The trial is being conducted according to the Declaration of Helsinki and relevant International Conference on Harmonization Good Clinical Practice guidelines and with approval from the ethics committee of the University of Heidelberg. […] All provided written informed consent before participating in this study. The overall workflow of the trial is depicted in FIG. 2.
Assessment of proliferation in histology samples. Briefly cryo sections were fixed with 4% paraformaldehyde (PFA, Sigma Aldrich, Germany). The sections were blocked with 10% normal goat serum (Vector, USA). […] The slides were incubated with a secondary antibody (rabbit-anti-mouse IgG, Bond Polymer Refine Detection System, Leica, Germany) for 8 minutes at room temperature. Further amplification of the signal was achieved through incubation with a third antibody, conjugated with horse radish peroxidase and coupled to dextrane molecules in large numbers, for 8 minutes at room temperature (Poly-HRP-mouse-anti-rabbit IgG, Bond Polymer Refine Detection System, Leica, Germany). The antigen detection was performed by a color reaction with 3,3-di-amino-benzidine (DAB chromogen, Bond Polymer Refine Detection System, Leica, Germany). The sections were counterstained with hematoxylin (Bond Polymer Refine Detection System, Leica, Germany) and mounted with Aquatex (Merck, Germany). Assessment was performed with the Visiomorph Software Package (Visiopharm, Denmark) to quantify positive tumor cells.

With Cc1nnc(C(C)C)n1[C@@H]1C[C@H]2CC[C@@H](C1)N2CC[C@H](NC(=O)C1CCC(F)(F)CC1)c1ccccc1 [Maraviroc, 4,4-difluoro-N-{(1S)-3-[3-(3-isopropyl-5-methyl-4H-1,2,4-triazol-4-yl)-8-azabicyclo[3.2.1]oct-8-yl]-1-phenylpropyl}cyclohexanecarboxamide] the “tumor cell death upon inhibition of CCR5” value ([1]; explants treated with Maraviroc (in DMSO)) was “clear tumor cell death”, the “effects in the adjacent liver” value ([1]; explants treated with Maraviroc) was “no effects” and the “histology of treated section (hemalaun counterstaining)” value ([1]; treated section vs untreated control section) was “Large areas of necrosis and only few remaining tumor cells”. The “tumor cell death in patients (biopsies)” value ([2]; Maraviroc 300 mg/bid, second biopsy after 8-10 days) was “tumor cell death”, the “Objective response (RECIST)/ other responses” value ([2]; liver) was −10% (liver) and the “Objective response (RECIST)/ other responses” value ([2]; lung) was −50% (lung),. The “radiologically measured area of necrosis of liver metastases” value ([2]; before vs after therapy, percentage of necrotic area of reference lesion, FIG. 5) was “increase in necrotic area”, the “proliferation activity (Ki67 percentage) of tumor cells” value ([2]; before vs under treatment (8-10 days, second biopsy), FIG. 4) was “Reductions” and the “key cytokines for tumor growth, chemotherapy resistance or angiogenesis” value ([2]; day 0 (pretreatment) vs day 9 of treatment, FIG. 3) was “Marked Changes”. The tolerability ([2]; patients) was “well-tolerated” and the side effects ([2]; patients, so far) was “does not have significant side effects”.
